Experiments:
Assay in all cases: SRB assay, IMT combined with inhibitor
Assay type in all cases: cell-based
COLO205 = COLO205 (colon); concentration series of the labelled inhibitor + fixed concentration of IMT (3S)-1-[(2R)-2-[4-(2-chloro-4-fluoro-phenyl)-2-oxo-chromen-7-yl]oxypropanoyl]piperidine-3-carboxylic acid (Table 3: 40 nM, 120 h); negative=synergistic, positive=antagonistic
Protocol: (§1) Solforhodamine B assay is carried out as described in Voigt W. (2005) Sulforhodamine B Assay and Chemosensitivity. (Methods in Molecular Medicine™, vol 110. Humana Press. https://doi.org/10.1385/1-59259-869-2:039).
(§2) The determination of changes in cellular biomass was based on the Solforhodamine B assay format, carried out as described in Voigt W. (2005) Sulforhodamine B Assay and Chemosensitivity. (Methods in Molecular Medicine™, vol 110. Humana Press. https://doi.org/10.1385/1-59259-869-2:039).
(§3) All in vitro cell culture experiments were carried out under near physiological glucose concentrations (5 mM) in at least two independent replicates.
(§4) First, 30 different cell lines from 14 different tissue types were tested in the SRB assay format. The cells were examined individually for changes in growth over a period of 120 hours with dilution series of both inhibitors. Untreated cells were used as a negative control group. Subsequently, a dilution series of the respective MAPK signalling pathway SOCs was treated in combination with a fixed concentration of 40 nM (3S)-1-[(2R)-2-[4-(2-chloro-4-fluoro-phenyl)-2-oxo-chromen-7-yl]oxypropanoyl]piperidine-3-carboxylic acid.

GRANTA-519 = GRANTA-519 (hematological); concentration series of the labelled inhibitor + fixed concentration of IMT (3S)-1-[(2R)-2-[4-(2-chloro-4-fluoro-phenyl)-2-oxo-chromen-7-yl]oxypropanoyl]piperidine-3-carboxylic acid (Table 3: 40 nM, 120 h); negative=synergistic, positive=antagonistic
Protocol: as §1, §2, §3, §4

HCT116 = HCT116 (colon); concentration series of the labelled inhibitor + fixed concentration of IMT (3S)-1-[(2R)-2-[4-(2-chloro-4-fluoro-phenyl)-2-oxo-chromen-7-yl]oxypropanoyl]piperidine-3-carboxylic acid (Table 3: 40 nM, 120 h); negative=synergistic, positive=antagonistic
Protocol: as §1, §2, §3, §4

HEPG2 = HEPG2 (liver); concentration series of the labelled inhibitor + fixed concentration of IMT (3S)-1-[(2R)-2-[4-(2-chloro-4-fluoro-phenyl)-2-oxo-chromen-7-yl]oxypropanoyl]piperidine-3-carboxylic acid (Table 3: 40 nM, 120 h); negative=synergistic, positive=antagonistic
Protocol: as §1, §2, §3, §4

HT29 = HT29 (colon); concentration series of the labelled inhibitor + fixed concentration of IMT (3S)-1-[(2R)-2-[4-(2-chloro-4-fluoro-phenyl)-2-oxo-chromen-7-yl]oxypropanoyl]piperidine-3-carboxylic acid (Table 3: 40 nM, 120 h); negative=synergistic, positive=antagonistic
Protocol: as §1, §2, §3, §4

IMR90 = IMR90 (lung); concentration series of the labelled inhibitor + fixed concentration of IMT (3S)-1-[(2R)-2-[4-(2-chloro-4-fluoro-phenyl)-2-oxo-chromen-7-yl]oxypropanoyl]piperidine-3-carboxylic acid (Table 3: 40 nM, 120 h); negative=synergistic, positive=antagonistic
Protocol: as §1, §2, §3, §4

MHHES1 = MHHES1 (bone); concentration series of the labelled inhibitor + fixed concentration of IMT (3S)-1-[(2R)-2-[4-(2-chloro-4-fluoro-phenyl)-2-oxo-chromen-7-yl]oxypropanoyl]piperidine-3-carboxylic acid (Table 3: 40 nM, 120 h); negative=synergistic, positive=antagonistic
Protocol: as §1, §2, §3, §4

PANC1 = PANC1 (pancreas); concentration series of the labelled inhibitor + fixed concentration of IMT (3S)-1-[(2R)-2-[4-(2-chloro-4-fluoro-phenyl)-2-oxo-chromen-7-yl]oxypropanoyl]piperidine-3-carboxylic acid (Table 3: 40 nM, 120 h); negative=synergistic, positive=antagonistic
Protocol: as §1, §2, §3, §4

SKMEL5 = SKMEL5 (skin); concentration series of the labelled inhibitor + fixed concentration of IMT (3S)-1-[(2R)-2-[4-(2-chloro-4-fluoro-phenyl)-2-oxo-chromen-7-yl]oxypropanoyl]piperidine-3-carboxylic acid (Table 3: 40 nM, 120 h); negative=synergistic, positive=antagonistic
Protocol: as §1, §2, §3, §4

SW620 = SW620 (colon); concentration series of the labelled inhibitor + fixed concentration of IMT (3S)-1-[(2R)-2-[4-(2-chloro-4-fluoro-phenyl)-2-oxo-chromen-7-yl]oxypropanoyl]piperidine-3-carboxylic acid (Table 3: 40 nM, 120 h); negative=synergistic, positive=antagonistic
Protocol: as §1, §2, §3, §4

U2OS = U2OS (bone); concentration series of the labelled inhibitor + fixed concentration of IMT (3S)-1-[(2R)-2-[4-(2-chloro-4-fluoro-phenyl)-2-oxo-chromen-7-yl]oxypropanoyl]piperidine-3-carboxylic acid (Table 3: 40 nM, 120 h); negative=synergistic, positive=antagonistic
Protocol: as §1, §2, §3, §4

U87MG = U87MG (brain); concentration series of the labelled inhibitor + fixed concentration of IMT (3S)-1-[(2R)-2-[4-(2-chloro-4-fluoro-phenyl)-2-oxo-chromen-7-yl]oxypropanoyl]piperidine-3-carboxylic acid (Table 3: 40 nM, 120 h); negative=synergistic, positive=antagonistic
Protocol: as §1, §2, §3, §4

A2780 = A2780 (ovary); concentration series of the labelled inhibitor + fixed concentration of IMT (3S)-1-[(2R)-2-[4-(2-chloro-4-fluoro-phenyl)-2-oxo-chromen-7-yl]oxypropanoyl]piperidine-3-carboxylic acid (Table 3: 40 nM, 120 h); negative=synergistic, positive=antagonistic
Protocol: In two studies, the ovarian cell line A2780 was tested for 72 hours with the IMT N,N-dimethyl-2-[4-(o-tolyl)-2-oxo-chromen-7-yl]oxy-propanamide (30 μM-15 nM) and the MEK inhibitor Selumetinib (30 μM-10 nM), or with the IMT 1-[2-[4-(2-chlorophenyl)-2-oxo-chromen-7-yl]oxypropanoyl]piperidine-3-sulfonamide (30 μM-15 nM) and the MEK inhibitor PD318088 (30 μM-10 nM).
as §1, §2, §3, §4

Compound	difference between the calculated combinatorial index (BLISS) and the observed combinatorial effect (COLO205)	difference between the calculated combinatorial index (BLISS) and the observed combinatorial effect (GRANTA-519)	difference between the calculated combinatorial index (BLISS) and the observed combinatorial effect (HCT116)	difference between the calculated combinatorial index (BLISS) and the observed combinatorial effect (HEPG2)	difference between the calculated combinatorial index (BLISS) and the observed combinatorial effect (HT29)	difference between the calculated combinatorial index (BLISS) and the observed combinatorial effect (IMR90)	difference between the calculated combinatorial index (BLISS) and the observed combinatorial effect (MHHES1)	difference between the calculated combinatorial index (BLISS) and the observed combinatorial effect (PANC1)	difference between the calculated combinatorial index (BLISS) and the observed combinatorial effect (SKMEL5)	difference between the calculated combinatorial index (BLISS) and the observed combinatorial effect (SW620)	difference between the calculated combinatorial index (BLISS) and the observed combinatorial effect (U2OS)	difference between the calculated combinatorial index (BLISS) and the observed combinatorial effect (U87MG)	difference between the calculated combinatorial index (BLISS) and the observed combinatorial effect (A2780)
CC(C)(C)c1nc(-c2cccc(NS(=O)(=O)c3c(F)cccc3F)c2F)c(-c2ccnc(N)n2)s1 [Dabrafenib]	−0.0114	−0.0357	0.0411	−0.1427	0.0360	−0.0104	−0.0230	0.0029	−0.0987	−0.0699	−0.0418	0.0044	0.0281
CS(=O)(=O)N1CCN(Cc2cc3nc(-c4cccc5[nH]ncc45)nc(N4CCOCC4)c3s2)CC1 [GDC-0941, 2-(1H-Indazol-4-yl)-6-[[4-(methylsulfonyl)-1-piperazinyl]methyl]-4-(4-morpholinyl)thieno[3,2-d]pyrimidine]	0.0355	0.0647	−0.0464	−0.0006	0.1027	0.0629		−0.0128	−0.0915	0.0303	0.0451	0.1078	0.0077
C[C@H](Nc1ncnc2nc[nH]c12)c1cc2cccc(Cl)c2c(=O)n1-c1ccccc1 [Duvelisib]	−0.0157	0.0770	−0.0213	−0.0318	0.0216	0.0253		−0.0096	−0.1083	−0.0623	−0.0126	0.0433	0.0081
O=C(c1cc(Cc2n[nH]c(=O)c3ccccc23)ccc1F)N1CCN(C(=O)C2CC2)CC1 [Olaparib]	−0.0607	−0.0088	−0.0690	−0.0439	0.0068	0.0084	0.0269	−0.0430		0.0198	−0.0034	0.0523	−0.0656
COc1c(OCCCN2CCOCC2)ccc2c1N=C(NC(=O)c1cnc(N)nc1)N1CCN=C21 [BAY 80-6946, 2-Amino-N-{7-methoxy-8-[3-(4-morpholinyl)propoxy]-2,3-dihydroimidazo[1,2-c]quinazolin-5-yl}-5-pyrimidinecarboxamide]	0.0531	0.0631	−0.0195	−0.0273	0.0613	0.0281		0.0174	−0.0994	−0.0651	0.0017	0.0243	0.0466

Reference: patent publication US20240252454A1, “COMPOSITION COMPRISING AN INHIBITOR OF MITOCHONDRIAL TRANSCRIPTION” (LEAD DISCOVERY CENTER GMBH, priority 2021, published 2024)
